Key:
[1] = biological target: T1, PIEZO1 receptor in red blood cells (RBCs) (Homo sapiens, UniProt Q92508); test: Yoda1-induced Ca flux in red blood cells, Fluo4 am, flow cytometry (FACS) time-lapse; assay type: cell-based; conditions: for normalized MFI levels (Fluo4 am median fluorescence intensity normalized on baseline): 10 μM Yoda1, 60 s of recording
T1 construct: indicating the Ca^2+ influx into the red blood cells (RBCs) through PIEZO1 ion channels; endogenous in cells; host or cells: Red blood cells from venous blood of healthy, MCI and AD donors
Procedure: The venous blood samples from healthy subjects, patients with mild cognitive impairment (MCI), and patients with Alzheimer's disease (AD) were collected into BD Vacutainer® blood collection tubes containing the K3-EDTA anti-coagulant. 150 μl of whole blood was taken for further processing, washed two times with 10 ml of phosphate-buffered saline (PBS) (5 mins, 300 g, RT (=about 20-25° C.) to remove plasma. After the second wash, the supernatant was removed and 50 μl of red blood cells (RBCs) were transferred to clean falcon tube and resuspended in 200 μl PBS (250 μl total volume of cell suspension). 250 μl of Fluo4 am AM (Thermo Fisher Scientific) fluorescent dye was added and cells were incubated for 30 minutes at 37° C. in dark.
After the incubation, cell suspension was washed twice with 5 ml of PBS, followed by one wash with HBSS (5 mins, 300 g, RT). Supernatant was carefully removed with pipette and 50 μl pellet was resuspended in 450 μl of Hank's Balanced Salt Solution (HBSS) to form 10% cell suspension. 10 μl of 10% cell suspension was transferred to 390 μl of RPMI/FBS (10:1) (400 μl final volume). This cell suspension was further used for flow cytometry time-lapse assessment using CytoFLEX S flow cytometer (Beckman Coulter, USA).
At the start of the recording, at t=0 seconds, baseline fluorescence was recorded for 20 seconds. At t=20 seconds, Yoda1 in DMSO was applied to the sample at the final concentration of 5 or 10 μM. At t=4 minutes and 20 seconds, ionomycin, serving as the positive control, was applied at the final concentration 10 μM. Recording was finished at t=5 minutes 30 seconds.
FIGS. 3A-3C plot the mean values of Ca^2+ signal for each group with 10 μM Yoda1 spanning from BL (t=0 seconds) to t=4 minutes, while the FIGS. 3D-3F show the measurements of individual samples at t=60 seconds.
All flow cytometric data were analyzed using CytExpert Software v 2.4 (Beckman Coulter Inc., CA, USA). Yoda1-induced Ca flux was measured by using Fluo4 am median fluorescence intensity (MFI) of single cells after Yoda1 application at different time points—baseline (before application of Yoda1 at 10 μM concentrations), and every 20 sec of the recording.
Data were analyzed using GraphPad Prism Software (CA, USA). Statistical analysis was performed using Mann-Whitney test, two-tailed. The data are presented as mean±SEM.

[2] = biological target: T1, PIEZO1 receptor in red blood cells (RBCs); test: Yoda1-induced Ca flux in red blood cells, Fluo4 am, microtiter plate format and fluorometer; assay type: cell-based; conditions: n=4, mean±SEM, plate reader
Procedure: Mann-Whitney test, two-tailed, *p<0.05. […] Signals recorded without addition of Fluo4, with and without Yoda1, were subtracted from their Fluo4 loaded counterparts to give the final read-outs used in normalising the results.
300 μL of blood from the healthy persons and AD patients was collected into the blood sampling tubes with sodium citrate to prevent coagulation. The samples were washed twice with PBS buffer (Ca^2+ and Mg^2+ free) by centrifugation at 300 G for 5 minutes. […] of the red blood cell (RBC) pellet was divided into […], 50 μL for fluorescent staining and 50 μL for the negative control. […] The samples were distributed into the microtitration plate (96-wells, 180 μL per well), after which the ground level of fluorescence (485 nm/535 nm, 1.0 s, Victor Wallac) was measured immediately. 20 μL of DMSO (for vehicle control) or 20 μL of 5 μM Yoda1 (for PIEZO1 activity) was added into the wells, and the fluorescence was measured immediately. The fluorescence signal of the sample having no Fluo4 am was subtracted from the fluorescence signals of the vehicle and Yoda1 samples treated with Fluo4 am. The increase in fluorescence upon addition of Yoda1 was normalized to the signal measured before addition of Yoda1. The normalized increase fluorescence was 2.62±0.42 for healthy and 5.64±0.23 for AD (mean #SEM) (FIG. 3G). […]

T1 sequence (Q92508 whole entry): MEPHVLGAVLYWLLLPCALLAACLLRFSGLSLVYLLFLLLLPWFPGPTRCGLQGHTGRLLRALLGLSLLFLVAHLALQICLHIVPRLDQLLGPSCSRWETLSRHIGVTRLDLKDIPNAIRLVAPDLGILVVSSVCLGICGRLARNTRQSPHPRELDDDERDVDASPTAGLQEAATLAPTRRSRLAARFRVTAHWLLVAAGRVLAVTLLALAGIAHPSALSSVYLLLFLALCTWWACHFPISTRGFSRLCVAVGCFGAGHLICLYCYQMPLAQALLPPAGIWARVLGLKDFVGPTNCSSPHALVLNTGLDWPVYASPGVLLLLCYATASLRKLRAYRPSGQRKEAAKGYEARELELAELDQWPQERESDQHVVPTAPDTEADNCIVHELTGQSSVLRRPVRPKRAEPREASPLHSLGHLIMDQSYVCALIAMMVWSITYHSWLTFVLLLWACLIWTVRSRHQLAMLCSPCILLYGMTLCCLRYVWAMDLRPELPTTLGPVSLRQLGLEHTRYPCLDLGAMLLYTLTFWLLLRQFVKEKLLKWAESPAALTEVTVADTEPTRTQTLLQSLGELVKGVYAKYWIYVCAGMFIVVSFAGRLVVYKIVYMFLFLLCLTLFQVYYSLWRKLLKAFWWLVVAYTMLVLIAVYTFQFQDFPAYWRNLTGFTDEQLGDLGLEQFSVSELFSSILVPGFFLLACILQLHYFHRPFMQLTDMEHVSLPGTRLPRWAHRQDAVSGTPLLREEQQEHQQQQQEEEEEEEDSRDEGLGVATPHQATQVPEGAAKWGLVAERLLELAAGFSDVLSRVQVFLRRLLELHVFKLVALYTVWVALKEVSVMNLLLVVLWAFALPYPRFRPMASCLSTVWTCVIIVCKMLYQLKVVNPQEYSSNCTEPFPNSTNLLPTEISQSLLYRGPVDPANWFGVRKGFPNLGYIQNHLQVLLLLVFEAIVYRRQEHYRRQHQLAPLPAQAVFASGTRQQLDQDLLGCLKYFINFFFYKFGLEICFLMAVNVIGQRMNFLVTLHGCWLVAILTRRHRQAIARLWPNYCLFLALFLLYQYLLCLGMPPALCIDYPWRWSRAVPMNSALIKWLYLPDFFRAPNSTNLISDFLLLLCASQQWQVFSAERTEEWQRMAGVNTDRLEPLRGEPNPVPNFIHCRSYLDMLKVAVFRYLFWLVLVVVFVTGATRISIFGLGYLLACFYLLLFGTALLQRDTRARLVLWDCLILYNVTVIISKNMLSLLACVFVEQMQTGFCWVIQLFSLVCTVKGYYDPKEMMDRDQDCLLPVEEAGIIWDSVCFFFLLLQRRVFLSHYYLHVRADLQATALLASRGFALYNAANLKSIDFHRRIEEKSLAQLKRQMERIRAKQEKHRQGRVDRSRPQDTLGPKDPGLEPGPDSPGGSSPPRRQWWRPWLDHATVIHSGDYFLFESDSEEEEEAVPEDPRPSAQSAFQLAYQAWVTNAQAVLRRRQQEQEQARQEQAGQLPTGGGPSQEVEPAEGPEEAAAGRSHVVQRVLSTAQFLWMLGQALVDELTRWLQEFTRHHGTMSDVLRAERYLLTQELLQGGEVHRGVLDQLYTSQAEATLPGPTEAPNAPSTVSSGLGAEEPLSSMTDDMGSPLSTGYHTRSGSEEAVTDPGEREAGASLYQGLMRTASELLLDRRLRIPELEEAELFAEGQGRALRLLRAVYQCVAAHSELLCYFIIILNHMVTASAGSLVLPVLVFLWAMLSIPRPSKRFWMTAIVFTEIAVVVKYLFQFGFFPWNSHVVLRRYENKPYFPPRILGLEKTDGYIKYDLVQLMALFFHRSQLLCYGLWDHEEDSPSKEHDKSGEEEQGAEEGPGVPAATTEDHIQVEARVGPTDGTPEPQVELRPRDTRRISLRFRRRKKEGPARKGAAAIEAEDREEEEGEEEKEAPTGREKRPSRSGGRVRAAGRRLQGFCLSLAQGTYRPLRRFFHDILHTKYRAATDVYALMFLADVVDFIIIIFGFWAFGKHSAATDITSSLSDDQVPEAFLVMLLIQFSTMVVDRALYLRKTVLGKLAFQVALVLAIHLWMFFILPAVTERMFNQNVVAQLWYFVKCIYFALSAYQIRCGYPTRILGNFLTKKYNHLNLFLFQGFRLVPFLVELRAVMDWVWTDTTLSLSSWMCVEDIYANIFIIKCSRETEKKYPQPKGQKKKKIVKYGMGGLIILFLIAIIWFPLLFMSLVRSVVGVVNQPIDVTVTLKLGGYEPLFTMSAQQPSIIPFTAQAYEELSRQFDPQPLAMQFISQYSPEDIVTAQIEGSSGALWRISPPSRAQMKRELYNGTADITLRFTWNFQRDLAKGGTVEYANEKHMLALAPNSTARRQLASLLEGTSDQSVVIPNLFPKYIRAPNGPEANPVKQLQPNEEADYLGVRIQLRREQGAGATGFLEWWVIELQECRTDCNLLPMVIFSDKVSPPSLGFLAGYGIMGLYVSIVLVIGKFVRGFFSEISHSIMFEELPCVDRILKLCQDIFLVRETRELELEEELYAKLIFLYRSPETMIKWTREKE

- normalized MFI levels (Fluo4 am median fluorescence intensity normalized on baseline) ([1]; RBCs of AD patients, n=21, mean±SEM): 8.57±0.6
- normalized MFI levels (Fluo4 am median fluorescence intensity normalized on baseline) ([1]; RBCs of MCI patients, n=26, mean±SEM): 7.9±0.48
- normalized MFI levels (Fluo4 am median fluorescence intensity normalized on baseline) ([1]; RBCs of control (healthy) subjects, n=23, mean±SEM): 5.64±0.27
- time at which maximum Fluo4 am MFI levels were reached ([1]; 10 μM Yoda1 applied at 20 s of recording, levels remained similar till end of 4 min recording): ≤ 60 s
- normalized increase fluorescence (signal after Yoda1 normalized to signal before addition) ([2]; 5 μM Yoda1, RBCs of AD patients): 5.64±0.23
- normalized increase fluorescence (signal after Yoda1 normalized to signal before addition) ([2]; 5 μM Yoda1, RBCs of healthy persons): 2.62±0.42
SMILES: Clc1cccc(Cl)c1CSc1nnc(-c2cnccn2)s1 [Yoda1, 2-[(2,6-Dichlorophenyl)methylsulfanyl]-5-pyrazin-2-yl-1,3,4-thiadiazole]

Source: patent publication US20250231178A1, “A BIOMARKER FOR DETERMINING ALZHEIMER'S DISEASE” (UNIVERSITY OF EASTERN FINLAND, priority 2022, published 2025)
